Values after ≈ are worked out from the molar mass of the structure shown.
Tests used:
[1] = tested on: Enterococcus faecalis; assay: Antibacterial activity against vancomycin-sensitive Enterococcus faecalis ATCC 29212 after 18 hrs by CLSI broth microdilution method; format: functional; details: ATCC 29212, 18 h
[2] = tested on: Klebsiella pneumoniae; assay: Antibacterial activity against extended-spectrum beta-lactamase deficient Klebsiella pneumoniae 12-4 after 18 hrs by CLSI broth microdilution method; format: functional; details: 12-4, 18 h
[3] = tested on: Pseudomonas aeruginosa; assay: Antibacterial activity against Pseudomonas aeruginosa ATCC 27853 after 18 hrs by CLSI broth microdilution method; format: functional; details: ATCC 27853, 18 h
[4] = tested on: Staphylococcus aureus; assay: Antibacterial activity against methicillin-resistant Staphylococcus aureus ATCC 33591 after 18 hrs by CLSI broth microdilution method; format: functional; details: ATCC 33591, 18 h
[5] = tested on: Proteus mirabilis; assay: Antibacterial activity against Proteus mirabilis 12-6 after 18 hrs by CLSI broth microdilution method; format: functional; details: 12-6, 18 h
[6] = tested on: Staphylococcus aureus; assay: Antibacterial activity against methicillin-sensitive Staphylococcus aureus 15 after 18 hrs by CLSI broth microdilution method; format: functional; details: Staphylococcus aureus, 15, 18 h
[7] = tested on: Staphylococcus epidermidis; assay: Antibacterial activity against methicillin-sensitive Staphylococcus epidermidis ATCC 12228 after 18 hrs by CLSI broth microdilution method; format: functional; details: ATCC 12228, 18 h
[8] = tested on: Staphylococcus epidermidis; assay: Antibacterial activity against methicillin-resistant Staphylococcus epidermidis 12-8 after 18 hrs by CLSI broth microdilution method; format: functional; details: 12-8, 18 h
[9] = tested on: Staphylococcus aureus; assay: Antibacterial activity against methicillin-sensitive Staphylococcus aureus 12-28 after 18 hrs by CLSI broth microdilution method; format: functional; details: 12-28, 18 h
[10] = tested on: Enterococcus faecium; assay: Antibacterial activity against vancomycin-resistant Enterococcus faecium ATCC 700221 after 18 hrs by CLSI broth microdilution method; format: functional; details: ATCC 700221, 18 h
[11] = Cytotoxicity against HEK293T cells assessed as reduction in cell viability after 48 hrs by MTS assay; format: cell-based, HEK-293T; details: human
[12] = tested on: Stenotrophomonas maltophilia; assay: Antibacterial activity against Stenotrophomonas maltophilia ATCC 13636 after 18 hrs by CLSI broth microdilution method; format: functional; details: ATCC 13636, 18 h
[13] = tested on: Escherichia coli; assay: Antibacterial activity against extended-spectrum beta-lactamase harboring Escherichia coli 12-15 after 18 hrs by CLSI broth microdilution method; format: functional; details: 12-15, 18 h
[14] = tested on: Providencia rettgeri; assay: Antibacterial activity against Providencia rettgeri ATCC 31052 after 18 hrs by CLSI broth microdilution method; format: functional; details: ATCC 31052, 18 h
[15] = tested on: Enterococcus faecium; assay: Antibacterial activity against vancomycin-sensitive Enterococcus faecium 12-3 after 18 hrs by CLSI broth microdilution method; format: functional; details: 12-3, 18 h
[16] = tested on: Enterococcus faecalis; assay: Antibacterial activity against vancomycin-resistant Enterococcus faecalis ATCC 51299 after 18 hrs by CLSI broth microdilution method; format: functional; details: ATCC 51299, 18 h
[17] = tested on: Klebsiella pneumoniae; assay: Antibacterial activity against extended-spectrum beta-lactamase deficient Klebsiella pneumoniae 7 after 18 hrs by CLSI broth microdilution method; format: functional; details: Klebsiella pneumoniae, 7, 18 h
[18] = tested on: Escherichia coli; assay: Antibacterial activity against extended-spectrum beta-lactamase deficient Escherichia coli 12-14 after 18 hrs by CLSI broth microdilution method; format: functional; details: 12-14, 18 h
[19] = tested on: Enterococcus faecium; assay: Antibacterial activity against vancomycin-resistant Enterococcus faecium 12-1 after 18 hrs by CLSI broth microdilution method; format: functional; details: 12-1, 18 h
[20] = tested on: Escherichia coli; assay: Antibacterial activity against extended-spectrum beta-lactamase deficient Escherichia coli ATCC 25922 after 18 hrs by CLSI broth microdilution method; format: functional; details: ATCC 25922, 18 h
[21] = tested on: Pseudomonas aeruginosa; assay: Antibacterial activity against Pseudomonas aeruginosa PAO1 after 18 hrs by CLSI broth microdilution method; format: functional; details: PAO1, 18 h
[22] = tested on: Pseudomonas aeruginosa; assay: Antibacterial activity against Pseudomonas aeruginosa 12-16 after 18 hrs by CLSI broth microdilution method; format: functional; details: 12-16, 18 h
[23] = tested on: Klebsiella pneumoniae; assay: Antibacterial activity against extended-spectrum beta-lactamase harboring Klebsiella pneumoniae 12-8 after 18 hrs by CLSI broth microdilution method; format: functional; details: 12-8, 18 h
[24] = tested on: Klebsiella aerogenes; assay: Antibacterial activity against Enterobacter aerogenes ATCC 13048 after 18 hrs by CLSI broth microdilution method; format: functional; details: ATCC 13048, 18 h
[25] = tested on: Proteus vulgaris; assay: Antibacterial activity against Proteus vulgaris ATCC 29905 after 18 hrs by CLSI broth microdilution method; format: functional; details: ATCC 29905, 18 h
[26] = tested on: Citrobacter freundii; assay: Antibacterial activity against Citrobacter freundii ATCC 43864 after 18 hrs by CLSI broth microdilution method; format: functional; details: ATCC 43864, 18 h
[27] = tested on: Staphylococcus aureus; assay: Antibacterial activity against methicillin-resistant Staphylococcus aureus 12-33 after 18 hrs by CLSI broth microdilution method; format: functional; details: 12-33, 18 h
[28] = tested on: Staphylococcus aureus; assay: Antibacterial activity against methicillin-sensitive Staphylococcus aureus ATCC 29213 after 18 hrs by CLSI broth microdilution method; format: functional; details: ATCC 29213, 18 h
[29] = tested on: Acinetobacter calcoaceticus; assay: Antibacterial activity against Acinetobacter calcoaceticus ATCC 19606 after 18 hrs by CLSI broth microdilution method; format: functional; details: ATCC 19606, 18 h
[30] = tested on: Klebsiella pneumoniae; assay: Antibacterial activity against extended-spectrum beta-lactamase harboring Klebsiella pneumoniae ATCC 700603 after 18 hrs by CLSI broth microdilution method; format: functional; details: Klebsiella pneumoniae, 700603, 18 h
[31] = tested on: Enterococcus faecalis; assay: Antibacterial activity against vancomycin-sensitive Enterococcus faecalis 12-5 after 18 hrs by CLSI broth microdilution method; format: functional; details: 12-5, 18 h
[32] = tested on: Enterobacter cloacae; assay: Antibacterial activity against Enterobacter cloacae ATCC 43560 after 18 hrs by CLSI broth microdilution method; format: functional; details: ATCC 43560, 18 h
[33] = tested on: Enterococcus faecalis; assay: Antibacterial activity against vancomycin-resistant Enterococcus faecalis 09-9 after 18 hrs by CLSI broth microdilution method; format: functional; details: 09-9, 18 h
[34] = tested on: Staphylococcus epidermidis; assay: Antibacterial activity against methicillin-sensitive Staphylococcus epidermidis 12-6 after 18 hrs by CLSI broth microdilution method; format: functional; details: 12-6, 18 h
[35] = tested on: Escherichia coli; assay: Antibacterial activity against extended-spectrum beta-lactamase deficient Escherichia coli 1515 after 18 hrs by CLSI broth microdilution method; format: functional; details: Escherichia coli, 1515, 18 h
[36] = tested on: Klebsiella pneumoniae; assay: Antibacterial activity against new delhi metallo-beta-lactamase-1 harboring Klebsiella pneumoniae ATCC BAA-2146 after 18 hrs by CLSI broth microdilution method; format: functional; details: ATCC BAA-2146, 18 h
[37] = tested on: Serratia marcescens; assay: Antibacterial activity against Serratia marcescens ATCC 21074 after 18 hrs by CLSI broth microdilution method; format: functional; details: ATCC 21074, 18 h

Structure (SMILES)	MIC [1] [µg/mL]	MIC [2] [µg/mL]	MIC [3] [µg/mL]	MIC [4] [µg/mL]	MIC [5] [µg/mL]	MIC [6] [µg/mL]	MIC [7] [µg/mL]	MIC [8] [µg/mL]	MIC [9] [µg/mL]	MIC [10] [µg/mL]	CC50 at 48 h [11] [µg/mL]	MIC [12] [µg/mL]	MIC [13] [µg/mL]	MIC [14] [µg/mL]	MIC [15] [µg/mL]	MIC [16] [µg/mL]	MIC [17] [µg/mL]	MIC [18] [µg/mL]	MIC [19] [µg/mL]	MIC [20] [µg/mL]	also measured
CC(C)NC(=N)c1ccc2cc(-c3ccc(-c4cc5ccc(C(=N)NC(C)C)cc5[nH]4)cc3)[nH]c2c1	0.25 (≈ 0.525 µM)	2 (≈ 4.2 µM)	2 (≈ 4.2 µM)	0.125 (≈ 0.262 µM)	16 (≈ 33.6 µM)	0.125 (≈ 0.262 µM)	0.125 (≈ 0.262 µM)	0.125 (≈ 0.262 µM)	0.125 (≈ 0.262 µM)	0.25 (≈ 0.525 µM)	12.3 (≈ 25.8 µM)	4 (≈ 8.39 µM)	2 (≈ 4.2 µM)	4 (≈ 8.39 µM)	0.25 (≈ 0.525 µM)	0.25 (≈ 0.525 µM)	2 (≈ 4.2 µM)	4 (≈ 8.39 µM)	0.25 (≈ 0.525 µM)	2 (≈ 4.2 µM)	MIC [21]: 4 µg/mL (≈ 8.39 µM); MIC [22]: 8 µg/mL (≈ 16.8 µM); MIC [23]: 2 µg/mL (≈ 4.2 µM); MIC [24]: 4 µg/mL (≈ 8.39 µM); MIC [25]: 4 µg/mL (≈ 8.39 µM); MIC [26]: 2 µg/mL (≈ 4.2 µM); MIC [27]: 0.125 µg/mL (≈ 0.262 µM); MIC [28]: 0.125 µg/mL (≈ 0.262 µM); MIC [29]: 16 µg/mL (≈ 33.6 µM); MIC [30]: 8 µg/mL (≈ 16.8 µM); MIC [31]: 0.5 µg/mL (≈ 1.05 µM); MIC [32]: 4 µg/mL (≈ 8.39 µM); MIC [33]: 0.25 µg/mL (≈ 0.525 µM); MIC [34]: 0.125 µg/mL (≈ 0.262 µM); MIC [35]: 4 µg/mL (≈ 8.39 µM); MIC [36]: 4 µg/mL (≈ 8.39 µM); MIC [37]: 8 µg/mL (≈ 16.8 µM)
CN(C)C(=N)c1ccc2cc(-c3ccc4ccc(-c5cc6ccc(C(=N)N(C)C)cc6[nH]5)cc4c3)[nH]c2c1	128 (≈ 257 µM)	> 128	> 128	4 (≈ 8.02 µM)	> 128	4 (≈ 8.02 µM)	4 (≈ 8.02 µM)	4 (≈ 8.02 µM)	4 (≈ 8.02 µM)	128 (≈ 257 µM)	13.6 (≈ 27.4 µM)	> 128	> 128	> 128	32 (≈ 64.2 µM)	128 (≈ 257 µM)	> 128	> 128	16 (≈ 32.1 µM)	> 128	MIC [21]: > 128 µg/mL; MIC [22]: > 128 µg/mL; MIC [23]: > 128 µg/mL; MIC [24]: > 128 µg/mL; MIC [25]: > 128 µg/mL; MIC [26]: > 128 µg/mL; MIC [27]: 8 µg/mL (≈ 16 µM); MIC [28]: 4 µg/mL (≈ 8.02 µM); MIC [29]: > 128 µg/mL; MIC [30]: > 128 µg/mL; MIC [31]: 128 µg/mL (≈ 257 µM); MIC [32]: > 128 µg/mL; MIC [33]: 128 µg/mL (≈ 257 µM); MIC [34]: 64 µg/mL (≈ 128 µM); MIC [35]: > 128 µg/mL; MIC [36]: > 128 µg/mL; MIC [37]: > 128 µg/mL

— ChEMBL document CHEMBL4229379, “Synthesis and structure-activity relationship of novel bisindole amidines active against MDR Gram-positive and Gram-negative bacteria” (Eur J Med Chem, 2018)
